Tests used:
[1] = test system: Cholesterol level in the serum; assay: Lipid level lowering activity: serum cholesterol depression in normolipemic rats; type: in vivo, male normolipemic rats; conditions: Rattus norvegicus, oral, by regression analysis; for ED20: dose leading to 20% depression of serum cholesterol; for ED15: dose leading to 15% depression of serum cholesterol
Experimental: (§1) The above pharmacologicaly activity of the compounds of this invention, as well as their acute toxicities, were ascertained along with those of the three antihyperlipidemic compounds of the prior art by the standard test methods described below.
The test compound was administered twice by an esophageal tube at 20 hours' interval to male normolipemic rats having a body weight of 250-300 gm. When the test began, the animals were deprived of food, but water was freely accessible to them. 28 and 44 hours later the serum cholesterol and triglyceride-levels were determined. The measurement of cholesterol and triglycerides was effected simultaneously, using an autoanalyzer; the percentage depression was calculated, compared with a control group treated with placebo.
The cholesterol-lowering activity of the test compound was observed after oral administration of one dose and after oral administration of various doses.

Acute toxicity, oral = type: in vivo; conditions: mouse, in vivo, white mice, observation time 14 days
Experimental: as §1
(§2) The acute toxicity was determined on groups of 5 or 6 white mice each, after oral administration of the test compound at dosage levels of 2.5 gm/kg, 5 gm/kg and 10 gm/kg (observation time 14 days).

white mice = assay: Acute toxicity, oral; type: in vivo; conditions: 14 days, at the dose given as LD50
Experimental: as §1, §2

[2] = as disclosed in prior-art patents; cited from earlier work
[3] = see Therapie 27, 385 (1972); cited from earlier work
[4] = 28 hours after beginning of the test
[5] = 44 hours after beginning of the test

Structure (SMILES) | ED20 [1, 4] [mg/kg] | ED20 [1, 5] [mg/kg] | LD50 at 336 h (Acute toxicity, oral) [mg/kg] | animals died (white mice) | ED15 [1, 4] [mg/kg] | ED15 [1, 5] [mg/kg] | antihypercholesteremic / antihyperlipidemic properties [2] | Toxicity (LD50) [3] [gm/kg]
COc1ccc(Cl)cc1C(=O)NCCc1ccc(-c2ccc(OC(C)(C)C(=O)O)cc2)cc1 [A, 2-methyl-2-{4-[2-(2-methoxy-5-chloro-benzamido)-ethyl]-biphenyl-4'-oxy}-propionic acid] | 16 | 4.41 | > 10000 | 0 out of 5 | – | – | – | –
COc1ccccc1C(=O)NCCc1ccc(-c2ccc(OC(C)(C)C(=O)O)cc2)cc1 [B, 2-methyl-2-{4-[2-(2-methoxy-benzamido)-ethyl]-biphenyl-4'-oxy}-propionic a cid] | 3.1 | 0.59 | > 2500 | 1 out of 5 | – | – | – | –
CCOC(=O)C(C)(C)Oc1ccc(Cl)cc1 [C, ethyl 2-(4-chlorophenoxy)-2-methyl propionate] | 22 | 32 | – | – | 15 | 25 | has antihypercholesteremic properties | 1.7
COC(=O)C(C)(C)Oc1ccc(-c2ccc(Cl)cc2)cc1 [D, methyl 2-[4-(4-chlorophenyl)-phenoxy]-2-methyl-propionate] | 11 | 5.6 | 5000 | 3 out of 5 | 6.9 | 4.4 | has antihyperlipidemic properties | –
CCOC(=O)C(C)(C)Oc1ccc(CCNC(=O)c2cc(Cl)ccc2OC)cc1 [E, ethyl 2-methyl-2-{4-[2-(2-methoxy-5-chloro-benzamido)-ethyl]-phenoxy}-propionate] | 5 | 5 | 2500 | 3 out of 6 | 3.6 | 3.6 | exhibits similar properties | –
